Measurements published in patent publication US11919901B2 (Syndax Pharmaceuticals, Inc., priority 2021, dated 2024).
Read-outs that look alike come from different tables or passages of the source.

Tests used:
[1] = target: human Menin and N-terminal portion of human MLL (amino acids 4-43) (Homo sapiens (Human), UniProt O00255); assay: Menin-MLL competition assay (HTRF); format: binding; conditions: 1 hr incubation
Excerpt: Menin-MLL is a competition assay between human Menin and N-terminal portion of human MLL representing amino acids 4-43 of the protein. The interaction between Menin and MLL peptide was monitored by HTRF employing Terbium labeled anti-His6 antibody directed to the N-terminal His6-tag on recombinant Menin and FITC group covalently attached to the MLL peptide. The N-terminal fragment of MLL, retained in all MLL fusion proteins, is involved in the interactions with Menin, and this protein-protein interaction is critical for the MLL fusion proteins mediated leukemogenic transformations.
For IC50 determination test compounds were prepared as 10 mM DMSO stock solutions. Considering DMSO as the vehicle in the assay system. Lower sub-stocks of 50 μM were prepared from the 10 mM stock solution. To test the compounds in assay, 3.16-fold serial dilutions are made in 100% DMSO. Mid-stock of 50× compounds (50 μM) were serially diluted (3.16 fold) in 100% DMSO in Polypropylene plate. In assay plate 1 micro-litre of the previously prepared compound dilution was stamped. H-FL-Menin diluted to 4 nM in assay buffer (50 mM Tris-HCl, pH 7.4, 50 mM NaCl, freshly prepared 1 mM DTT, 0.01% BSA, 0.005% Triton X-100) was pre-incubated with 8 nM anti-His6-Tb for 30 min at room temperature. […]

[2] = tested on: MV4-11 cells; assay: Cell proliferation assay MV4;11 (CellTiter-Glo, 72 hours); format: cell-based; conditions: Homo sapiens, read-out: MV4
Method in brief: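 Luminescent CellTiter-Glo readout after 72 h culture, 37 °C, 5% CO2, expressed relative to vehicle-treated wells, with maximal inhibition taken at the highest dose. MLL-rearranged MV4-11 leukemia cells; final compound range 0.632 to 2000 nM in eight steps.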

[3] = MV4;11 leukemia cell line, 72 hours, 11 IC50

Sequence of human Menin and N-terminal portion of human MLL (amino acids 4-43) (O00255 whole entry, the tested form may be a part): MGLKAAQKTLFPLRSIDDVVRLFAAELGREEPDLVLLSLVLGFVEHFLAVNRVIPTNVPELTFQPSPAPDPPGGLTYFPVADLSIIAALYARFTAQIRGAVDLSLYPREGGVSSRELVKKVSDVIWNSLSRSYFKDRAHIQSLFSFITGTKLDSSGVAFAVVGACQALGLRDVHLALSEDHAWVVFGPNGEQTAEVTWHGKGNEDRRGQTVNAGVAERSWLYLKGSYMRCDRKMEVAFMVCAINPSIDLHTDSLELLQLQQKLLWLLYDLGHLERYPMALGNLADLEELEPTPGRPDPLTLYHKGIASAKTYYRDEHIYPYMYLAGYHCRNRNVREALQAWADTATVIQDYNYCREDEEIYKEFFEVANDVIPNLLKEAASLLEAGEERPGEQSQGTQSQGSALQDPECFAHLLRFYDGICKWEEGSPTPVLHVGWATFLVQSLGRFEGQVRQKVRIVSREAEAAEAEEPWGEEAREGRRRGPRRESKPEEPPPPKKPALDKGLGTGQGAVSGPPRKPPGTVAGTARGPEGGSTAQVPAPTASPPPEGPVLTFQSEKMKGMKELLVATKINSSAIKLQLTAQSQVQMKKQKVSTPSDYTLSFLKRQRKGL

| SMILES | IC50 [1] [nM] | IC50 [2, 3] [nM] | IC50 ([2]; MV4-11, 72 h, 11 IC50 (nM)) [nM] |
| --- | --- | --- | --- |
| CCN(C(=O)c1cc(F)ccc1Oc1cncnc1N1CC2(CCN(C[C@H]3CC[C@H](NS(=O)(=O)CC)CO3)CC2)C1)C(C)C [Example 52, N-Ethyl-2-((4-(7-(((2R,5S)-5-(ethylsulfonamido)tetrahydro-2H-pyran-2-yl)methyl)-2,7-diazaspiro[3.5]nonan-2-yl)pyrimidin-5-yl)oxy)-5-fluoro-N-isopropylbenzamide] | < 100 | 100 to 1000 | – |
| CCS(=O)(=O)N[C@@H]1CC[C@@H](CN2CCC3(CC2)CN(c2ncncc2Oc2ccc(F)cc2C(=O)N(C(C)C)[C@@H]2C[C@@H]4CC[C@H]2O4)C3)OC1 [Example 251, N-((1R,2R,4S)-7-Oxabicyclo[2.2.1]heptan-2-yl)-2-((4-(7-(((2S,5R)-5-(ethylsulfonamido)tetrahydro-2H-pyran-2-yl)methyl)-2,7-diazaspiro[3.5]nonan-2-yl)pyrimidin-5-yl)oxy)-5-fluoro-N-isopropylbenzamide] | – | < 100 | – |
| CCS(=O)(=O)N[C@@H]1CC[C@@H](CN2CCC3(CC2)CN(c2ncncc2Oc2ccc(F)cc2C(=O)N(C(C)C)C2CC4(COC4)C2)C3)OC1 [Example 252, 2-((4-(7-(((2S,5R)-5-(Ethylsulfonamido)tetrahydro-2H-pyran-2-yl)methyl)-2,7-diazaspiro[3.5]nonan-2-yl)pyrimidin-5-yl)oxy)-5-fluoro-N-isopropyl-N-(2-oxaspiro[3.3]heptan-6-yl)benzamide] | – | < 100 | – |
| COCCN(C(=O)c1cc(F)ccc1Oc1cncnc1N1CC2(CCN(C[C@@H]3CC[C@@H](NS(=O)(=O)c4ccccc4)CO3)CC2)C1)C(C)C [Example 254, 5-Fluoro-N-isopropyl-N-(2-methoxyethyl)-2-((4-(7-(((2S,5R)-5-(phenylsulfonamido)tetrahydro-2H-pyran-2-yl)methyl)-2,7-diazaspiro[3.5]nonan-2-yl)pyrimidin-5-yl)oxy)benzamide] | – | < 100 | – |
| CCS(=O)(=O)N[C@@H]1CC[C@@H](CN2CCC3(CC2)CN(c2ncncc2Oc2ccc(F)cc2C(=O)N(C[C@@H](O)CO)C(C)C)C3)OC1 [Example 255, N-((R)-2,3-Dihydroxypropyl)-2-((4-(7-(((2S,5R)-5-(ethylsulfonamido)tetrahydro-2H-pyran-2-yl)methyl)-2,7-diazaspiro[3.5]nonan-2-yl)pyrimidin-5-yl)oxy)-5-fluoro-N-isopropylbenzamide] | – | – | 100 to 1000 |
| CCS(=O)(=O)N[C@@H]1CC[C@@H](CN2CCC3(CC2)CN(c2ncncc2Oc2ccc(F)cc2C(=O)N(C(C)C)[C@@H]2CC[C@@H]2O)C3)OC1 [Example 258, 2-((4-(7-(((2S,5R)-5-(Ethylsulfonamido)tetrahydro-2H-pyran-2-yl)methyl)-2,7-diazaspiro[3.5]nonan-2-yl)pyrimidin-5-yl)oxy)-5-fluoro-N-((1R,2S)-2-hydroxycyclobutyl)-N-isopropylbenzamide] | – | < 100 | – |
